Reference: PubChem BioAssay AID304 (DTP/NCI, 2004)
Values joined by “and” are separate entries in the source; they are usually repeats but may differ in a detail not shown here. Equal values may be shown once. Inconclusive results and toxic doses are left out.

Test system: Lymphosarcoma Mecca ip in C3AKF1 mice, survival T/C%
Assay: NCI In Vivo Anticancer Drug Screen. Data for tumor model Lymphosarcoma Mecca (intraperitoneal) in C3AKF1 (CHKRF1) mice
Settings: endpoint: survival time, mean or median, higher = longer survival
Method: The antitumor activity of compounds was measured in mice bearing transplantable tumors. Survival or tumor size were measured and the results are expressed as the measurement made in the treated group (T) divided by the measurement made in the vehicle treated control group (C). The tumor model used in this assay is Lymphosarcoma Mecca (intraperitoneal) in C3AKF1 (CHKRF1) mice

[1] = dose: 8.0 mg/kg/injection, schedule: Q01DX010 (ip), vehicle: saline
[2] = dose: 16.0 mg/kg/injection, schedule: Q01DX010 (ip), vehicle: saline
[3] = dose: 0.5 mg/kg/injection, schedule: Q01DX010 (ip), vehicle: saline
[4] = dose: 1.0 mg/kg/injection, schedule: Q01DX010 (ip), vehicle: saline
[5] = dose: 2.0 mg/kg/injection, schedule: Q01DX010 (ip), vehicle: saline
[6] = dose: 4.0 mg/kg/injection, schedule: Q01DX010 (ip), vehicle: saline
[7] = dose: 400.0 mg/kg/injection, schedule: Q01DX010 (ip), vehicle: saline
[8] = dose: 3.0 mg/kg/injection, schedule: Q01DX010 (ip), vehicle: saline
[9] = dose: 6.0 mg/kg/injection, schedule: Q01DX010 (ip), vehicle: saline
[10] = dose: 12.0 mg/kg/injection, schedule: Q01DX010 (ip), vehicle: saline
[11] = dose: 18.8 mg/kg/injection, schedule: Q01DX010 (ip), vehicle: saline
[12] = dose: 37.5 mg/kg/injection, schedule: Q01DX010 (ip), vehicle: saline
[13] = dose: 75.0 mg/kg/injection, schedule: Q01DX010 (ip), vehicle: saline
[14] = dose: 3.13 mg/kg/injection, schedule: Q01DX010 (ip), vehicle: saline
[15] = dose: 6.25 mg/kg/injection, schedule: Q01DX010 (ip), vehicle: saline
[16] = dose: 12.5 mg/kg/injection, schedule: Q01DX010 (ip), vehicle: saline
[17] = dose: 25.0 mg/kg/injection, schedule: Q01DX010 (ip), vehicle: saline
[18] = dose: 200.0 mg/kg/injection, schedule: Q01DX010 (ip), vehicle: saline
[19] = dose: 50.0 mg/kg/injection, schedule: Q01DX010 (ip), vehicle: saline
[20] = dose: 2.5 mg/kg/injection, schedule: Q01DX010 (ip), vehicle: saline
[21] = dose: 5.0 mg/kg/injection, schedule: Q01DX010 (ip), vehicle: saline
[22] = dose: 10.0 mg/kg/injection, schedule: Q01DX010 (ip), vehicle: saline
[23] = dose: 20.0 mg/kg/injection, schedule: Q01DX010 (ip), vehicle: saline
[24] = dose: 100.0 mg/kg/injection, schedule: Q01DX010 (ip), vehicle: saline
[25] = dose: 7.5 mg/kg/injection, schedule: Q01DX010 (ip), vehicle: saline
[26] = dose: 15.0 mg/kg/injection, schedule: Q01DX010 (ip), vehicle: saline
[27] = dose: 30.0 mg/kg/injection, schedule: Q01DX010 (ip), vehicle: saline

c1ccc(CNc2ncnc3[nH]ncc23)cc1
T/C [1]: 151 % of control | T/C [2]: 100 % of control and 118 % of control | T/C (dose: 32.0 mg/kg/injection, schedule: Q01DX010 (ip), vehicle: saline): 90 % of control

Nc1nc(F)nc2c1ncn2C1OC(CO)C(O)C1O (stereo not given)
T/C [3]: 100 % of control | T/C [4]: 90 % of control and 105 % of control | T/C [5]: 90 % of control and 100 % of control | T/C [6]: 100 % of control | T/C [1]: 100 % of control

CN(C)/N=N/c1nc[nH]c1C(N)=O
T/C [7]: 155 % of control

N=C(N)c1ccc(Nc2ccc(C(=N)N)cc2)cc1
T/C [8]: 100 % of control | T/C [9]: 90 % of control and 100 % of control | T/C [10]: 100 % of control and 110 % of control | T/C (dose: 24.0 mg/kg/injection, schedule: Q01DX010 (ip), vehicle: saline): 100 % of control

CO[C@@H]1[C@@H](OC2OC(C)C(OC3CC(C)(O)C(OC(=O)CC(C)C)C(C)O3)C(N(C)C)C2O)[C@@H](CC=O)C[C@@H](C)C(=O)/C=C/C2O[C@H]2C[C@@H](C)OC(=O)C[C@H]1OC(C)=O (stereo not given in full)
T/C (dose: 4.7 mg/kg/injection, schedule: Q01DX010 (ip), vehicle: saline): 90 % of control | T/C (dose: 9.4 mg/kg/injection, schedule: Q01DX010 (ip), vehicle: saline): 100 % of control | T/C [11]: 90 % of control | T/C [12]: 90 % of control and 95 % of control | T/C [13]: 86 % of control

N=[N+]=CC(=O)OCC(N)C(=O)O (stereo not given)
T/C [14]: 120 % of control and 124 % of control | T/C [15]: 100 % of control | T/C [16]: 116 % of control | T/C [17]: 105 % of control

NC(=O)N(CCCl)N=O
T/C [3]: 300 % of control | T/C [4]: 158 % of control and 230 % of control | T/C [6]: 110 % of control

O=C(Nc1ccc(C2=NCCN2)cc1)c1cccc(C(=O)Nc2ccc(C3=NCCN3)cc2)c1
T/C [1]: 113 % of control | T/C [2]: 110 % of control and 205 % of control | T/C (dose: 64.0 mg/kg/injection, schedule: Q01DX010 (ip), vehicle: saline): 175 % of control

Nc1ncnc2[nH]ncc12
T/C (dose: 1.5 mg/kg/injection, schedule: Q01DX010 (ip), vehicle: saline): 105 % of control | T/C [8]: 111 % of control and 115 % of control | T/C [9]: 95 % of control | T/C [10]: 95 % of control

O[C@H](CN1CC1)[C@@H](O)CN1CC1
T/C (dose: 62.5 micrograms/kg/injection, schedule: Q01DX010 (ip), vehicle: saline): 175 % of control | T/C (dose: 125.0 micrograms/kg/injection, schedule: Q01DX010 (ip), vehicle: saline): 210 % of control and 235 % of control | T/C (dose: 250.0 micrograms/kg/injection, schedule: Q01DX010 (ip), vehicle: saline): 235 % of control and 300 % of control | T/C (dose: 500.0 micrograms/kg/injection, schedule: Q01DX010 (ip), vehicle: saline): 105 % of control

Nc1nc(SCc2ccccc2)c2[nH]cnc2n1
T/C [1]: 90 % of control | T/C [2]: 90 % of control

COCCCNP(=S)(N1CC1)N1CC1
T/C [3]: 100 % of control | T/C [4]: 100 % of control | T/C [5]: 100 % of control | T/C [6]: 105 % of control

COc1cc(-c2ccc(Nc3ccccc3C(=O)O)c(OC)c2)ccc1Nc1ccccc1C(=O)O
T/C [16]: 111 % of control | T/C [17]: 120 % of control and 122 % of control | T/C [18]: 105 % of control

CS(=O)(=O)OCCCCOS(C)(=O)=O
T/C [15]: 86 % of control and 100 % of control | T/C [16]: 100 % of control | T/C [17]: 90 % of control | T/C [19]: 95 % of control

CC1CN1P(=S)(N1CC1C)N1CC1C (stereo not given)
T/C (dose: 1.25 mg/kg/injection, schedule: Q01DX010 (ip), vehicle: saline): 100 % of control | T/C [20]: 100 % of control and 105 % of control | T/C [21]: 100 % of control | T/C [22]: 100 % of control and 105 % of control | T/C [23]: 100 % of control

CS(=O)(=O)OCCC(=O)N1CCN(C(=O)CCOS(C)(=O)=O)CC1
T/C [16]: 120 % of control | T/C [17]: 105 % of control and 110 % of control | T/C [24]: 160 % of control

NC(Cc1ccc(N(CCCl)CCCl)cc1)C(=O)O (stereo not given)
T/C [5]: 188 % of control and 190 % of control | T/C [6]: 165 % of control and 224 % of control | T/C [21]: 160 % of control | T/C [1]: 168 % of control | T/C [22]: 105 % of control and 110 % of control | T/C [2]: 100 % of control and 108 % of control | T/C [23]: 95 % of control

Nc1nc(=O)n(C2CC(O)C(CO)O2)cc1Br (stereo not given)
T/C [19]: 100 % of control | T/C [24]: 100 % of control and 105 % of control | T/C [18]: 100 % of control and 111 % of control | T/C [7]: 90 % of control and 94 % of control | T/C (dose: 800.0 mg/kg/injection, schedule: Q01DX010 (ip), vehicle: saline): 88 % of control

CN(C)[C@@H]1C(=O)C(C(N)=O)=C(O)[C@@]2(O)C(=O)C3=C(O)c4c(O)cccc4C[C@H]3C[C@@H]12
T/C (dose: 3.75 mg/kg/injection, schedule: Q01DX010 (ip), vehicle: saline): 100 % of control | T/C [25]: 100 % of control | T/C [26]: 100 % of control | T/C [27]: 90 % of control and 94 % of control

CN(C)c1ccc(/C=C/c2ccnc3ccccc23)cc1
T/C [21]: 100 % of control and 111 % of control | T/C [22]: 94 % of control | T/C [23]: 94 % of control and 100 % of control | T/C (dose: 40.0 mg/kg/injection, schedule: Q01DX010 (ip), vehicle: saline): 94 % of control

N#[N+]c1cnc([O-])[nH]c1=O
T/C [21]: 157 % of control

Cc1cc2nc3c(=O)[nH]c(=O)nc-3n(CC(O)C(O)C(O)C(O)CO)c2cc1C (stereo not given)
T/C [17]: 95 % of control | T/C [19]: 90 % of control and 95 % of control | T/C [24]: 90 % of control and 100 % of control | T/C [18]: 90 % of control and 100 % of control

O=NN(CCCl)C(=O)NCCCl
T/C [15]: 275 % of control and 303 % of control | T/C [16]: 151 % of control and 155 % of control | T/C [17]: 92 % of control and 115 % of control

S=P(N1CCOCC1)(N1CC1)N1CC1
T/C [20]: 88 % of control | T/C [21]: 88 % of control | T/C [22]: 88 % of control

CCN(CC)CCNc1ccc(C)c2sc3ccccc3c(=O)c12
T/C [17]: 116 % of control and 122 % of control | T/C [19]: 105 % of control | T/C [24]: 111 % of control

CS(=O)(=O)OCCCl
T/C [11]: 100 % of control | T/C [12]: 113 % of control | T/C [13]: 100 % of control

O=c1[nH]cc(F)c(=O)[nH]1
T/C [20]: 100 % of control | T/C [21]: 110 % of control | T/C [23]: 155 % of control

O=C(Nc1ccc(C2=NCCN2)cc1)c1ccc(C(=O)Nc2ccc(C3=NCCN3)cc2)c([N+](=O)[O-])c1
T/C [9]: 116 % of control | T/C [1]: 116 % of control | T/C [10]: 116 % of control

Clc1ncnc2nc[nH]c12
T/C [25]: 90 % of control | T/C [26]: 95 % of control and 100 % of control | T/C [27]: 86 % of control and 95 % of control | T/C (dose: 60.0 mg/kg/injection, schedule: Q01DX010 (ip), vehicle: saline): 86 % of control

CN(C)c1nc(N(C)C)nc(N(C)C)n1
T/C [11]: 105 % of control | T/C [12]: 100 % of control | T/C [13]: 100 % of control and 111 % of control | T/C (dose: 150.0 mg/kg/injection, schedule: Q01DX010 (ip), vehicle: saline): 105 % of control and 111 % of control

C[C@]12C=CC(=O)C=C1CC[C@@H]1[C@@H]2[C@@H](O)C[C@@]2(C)[C@H]1CC[C@]2(O)C(=O)CO
T/C (dose: 12.5 mg/kg/injection, schedule: Q01DX010 (sc), vehicle: steriod suspending solution): 86 % of control | T/C (dose: 25.0 mg/kg/injection, schedule: Q01DX010 (sc), vehicle: steriod suspending solution): 100 % of control | T/C (dose: 50.0 mg/kg/injection, schedule: Q01DX010 (sc), vehicle: steriod suspending solution): 160 % of control | T/C (dose: 100.0 mg/kg/injection, schedule: Q01DX010 (sc), vehicle: steriod suspending solution): 115 % of control

O=C(Nc1ccc(C2=NCCCN2)cc1)c1ccc(C(=O)Nc2ccc(C3=NCCCN3)cc2)cc1
T/C [4]: 111 % of control and 116 % of control | T/C [5]: 116 % of control and 122 % of control | T/C [1]: 150 % of control

S=P(N1CC1)(N1CC1)N1CC1
T/C [4]: 270 % of control | T/C [5]: 90 % of control | T/C [6]: 109 % of control

C[C@H]1C(=O)O[C@@H]2CCN3CC=C(COC(=O)[C@](C)(O)[C@@]1(C)O)[C@H]23
T/C [14]: 109 % of control and 115 % of control | T/C [15]: 95 % of control and 109 % of control | T/C [16]: 105 % of control and 118 % of control | T/C [17]: 109 % of control and 115 % of control

C[C@@H]1C[C@@H]([C@H](O)CC2CC(=O)NC(=O)C2)C(=O)[C@@H](C)C1
T/C [21]: 109 % of control | T/C [22]: 100 % of control and 113 % of control | T/C [23]: 95 % of control
